Source: patent publication US20120029187A1, “HALOALKYLSULFONANILIDE DERIVATIVE” (Nissan Chemical Industries, Ltd., priority 2009, published 2012)

How the values were obtained:
Type in all cases: in vivo
barnyardgrass [1] = experiment: Test Example 3: herbicidal effects in soil treatment; settings: dose 3.2 g/a
Summary of the method: (§1)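 Seeds were sown in sterilized diluvial soil and covered with about 1.5 cm of soil. Compounds, formulated as emulsifiable concentrates and diluted with water, were sprayed evenly over the soil surface at set doses in g/a. Herbicidal effect was scored on a rating scale three weeks later.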

giant foxtail [2] = experiment: as above; settings: dose 3.2 g/a
Summary of the method: as §1

large crabgrass [3] = experiment: as above; settings: dose 3.2 g/a
Summary of the method: as §1

velvetleaf [4] = experiment: as above; settings: dose 3.2 g/a
Summary of the method: as §1

Italian ryegrass [5] = experiment: as above; settings: dose 3.2 g/a
Summary of the method: as §1

common chickweed [6] = experiment: as above; settings: dose 3.2 g/a
Summary of the method: as §1

posumbu knotweed [7] = experiment: as above; settings: dose 3.2 g/a
Summary of the method: as §1

common ragweed [8] = experiment: as above; settings: dose 3.2 g/a
Summary of the method: as §1

redroot pigweed [9] = experiment: as above; settings: dose 3.2 g/a
Summary of the method: as §1

beadstraw [10] = experiment: as above; settings: dose 3.2 g/a
Summary of the method: as §1

water foxtail [11] = experiment: as above; settings: dose 3.2 g/a
Summary of the method: as §1

common lambsquater [12] = experiment: as above; settings: dose 3.2 g/a
Summary of the method: as §1

wild oat [13] = experiment: as above; settings: dose 3.2 g/a
Summary of the method: as §1

barnyardgrass [14] = experiment: Test Example 1: herbicidal effects in preemergence treatment under submerged conditions; settings: dose 2.52 g/a
Summary of the method: (§2)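 Submerged conditions, 4 cm water over alluvial soil. Weeds sown and 2.5-leaf rice transplanted; compound applied preemergence to water surface, doses in g per are. Greenhouse, 25 to 30° C., three weeks, then 0–5 mortality rating.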

ducksalad [15] = experiment: as above; settings: dose 2.52 g/a
Summary of the method: as §2

bulrush [16] = experiment: as above; settings: dose 2.52 g/a
Summary of the method: as §2

barnyardgrass [17] = experiment: Test Example 4: herbicidal effect in foliage treatment; settings: dose 3.2 g/a, three weeks after application
Summary of the method: (§3)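 Post-emergence foliar spray of water-diluted emulsifiable concentrate at predetermined doses (g per are), applied to plants 14 days after sowing in sterile diluvial soil (greenhouse, 25 to 30° C). Visual scale rating of effect taken 3 weeks later.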

giant foxtail [18] = experiment: as above; settings: dose 3.2 g/a, three weeks after application
Summary of the method: as §3

large crabgrass [19] = experiment: as above; settings: dose 3.2 g/a, three weeks after application
Summary of the method: as §3

velvetleaf [20] = experiment: as above; settings: dose 3.2 g/a, three weeks after application
Summary of the method: as §3

Italian ryegrass [21] = experiment: as above; settings: dose 3.2 g/a, three weeks after application
Summary of the method: as §3

common chickweed [22] = experiment: as above; settings: dose 3.2 g/a, three weeks after application
Summary of the method: as §3

posumbu knotweed [23] = experiment: as above; settings: dose 3.2 g/a, three weeks after application
Summary of the method: as §3

common ragweed [24] = experiment: as above; settings: dose 3.2 g/a, three weeks after application
Summary of the method: as §3

redroot pigweed [25] = experiment: as above; settings: dose 3.2 g/a, three weeks after application
Summary of the method: as §3

beadstraw [26] = experiment: as above; settings: dose 3.2 g/a, three weeks after application
Summary of the method: as §3

water foxtail [27] = experiment: as above; settings: dose 3.2 g/a, three weeks after application
Summary of the method: as §3

common lambsquater [28] = experiment: as above; settings: dose 3.2 g/a, three weeks after application
Summary of the method: as §3

wild oat [29] = experiment: as above; settings: dose 3.2 g/a, three weeks after application
Summary of the method: as §3

barnyardgrass [30] = experiment: Test Example 2: herbicidal effects during the vegetation period under submerged conditions; settings: treatment during the vegetation period under submerged conditions; dose 2.52 g/a
Summary of the method: (§4)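 Barnyardgrass, bulrush and ducksalad were co-sown in alluvial soil flooded to 4 cm and grown in a greenhouse at 25 to 30° C. At the 1- or 2-leaf stage, water-diluted emulsifiable concentrates went onto the water surface at set doses (g/a). Herbicidal effect was scored three weeks later on a graded scale.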

ducksalad [31] = experiment: as above; settings: treatment during the vegetation period under submerged conditions; dose 2.52 g/a
Summary of the method: as §4

bulrush [32] = experiment: as above; settings: treatment during the vegetation period under submerged conditions; dose 2.52 g/a
Summary of the method: as §4

transplanted rice = experiment: Test Example 1: preemergence treatment under submerged conditions, effect on crop; settings: dose 2.52 g/a
Summary of the method: as §2

## CC(C)COC(=O)N(c1ccccc1CN1COC(C)(C)C(F)C1=O)S(=O)(=O)C(F)(F)F (stereo not drawn) [II-36]
Barnyardgrass [1]
  A: barnyardgrass, herbicidal effect (evaluation scale 0-5): 5 (mortality of 90% or above (nearly complete death))
Giant foxtail [2]
  E: giant foxtail, herbicidal effect (evaluation scale 0-5): 3 (mortality of at least 40% and less than 70%)
Large crabgrass [3]
  D: large crabgrass, herbicidal effect (evaluation scale 0-5): 4 (mortality of at least 70% and less than 90%)
Velvetleaf [4]
  I: velvetleaf, herbicidal effect (evaluation scale 0-5): 3 (mortality of at least 40% and less than 70%)
Italian ryegrass [5]
  H: Italian ryegrass, herbicidal effect (evaluation scale 0-5): 0 (mortality of less than 5% (almost ineffective))
Common chickweed [6]
  N: common chickweed, herbicidal effect (evaluation scale 0-5): 4 (mortality of at least 70% and less than 90%)
Posumbu knotweed [7]
  M: posumbu knotweed, herbicidal effect (evaluation scale 0-5): 4 (mortality of at least 70% and less than 90%)
Common ragweed [8]
  J: common ragweed, herbicidal effect (evaluation scale 0-5): 4 (mortality of at least 70% and less than 90%)
Redroot pigweed [9]
  K: redroot pigweed, herbicidal effect (evaluation scale 0-5): 0 (mortality of less than 5% (almost ineffective))
Beadstraw [10]
  O: beadstraw, herbicidal effect (evaluation scale 0-5): 4 (mortality of at least 70% and less than 90%)
Water foxtail [11]
  G: water foxtail, herbicidal effect (evaluation scale 0-5): 5 (mortality of 90% or above (nearly complete death))
Common lambsquater [12]
  L: common lambsquater, herbicidal effect (evaluation scale 0-5): 0 (mortality of less than 5% (almost ineffective))
Wild oat [13]
  F: wild oat, herbicidal effect (evaluation scale 0-5): 0 (mortality of less than 5% (almost ineffective))
Barnyardgrass [14]
  A: barnyardgrass, herbicidal effect (evaluation scale 0-5): 5 (mortality of 90% or above (nearly complete death))
Ducksalad [15]
  C: ducksalad, herbicidal effect (evaluation scale 0-5): 5 (mortality of 90% or above (nearly complete death))
Bulrush [16]
  B: bulrush, herbicidal effect (evaluation scale 0-5): 5 (mortality of 90% or above (nearly complete death))
Barnyardgrass [17]
  A: barnyardgrass, herbicidal effect: 5 (mortality of 90% or above (nearly complete death))
Giant foxtail [18]
  E: giant foxtail, herbicidal effect: 3 (mortality of at least 40% and less than 70%)
Large crabgrass [19]
  D: large crabgrass, herbicidal effect: 4 (mortality of at least 70% and less than 90%)
Velvetleaf [20]
  I: velvetleaf, herbicidal effect: 2 (mortality of at least 20% and less than 40%)
Italian ryegrass [21]
  H: Italian ryegrass, herbicidal effect: 2 (mortality of at least 20% and less than 40%)
Common chickweed [22]
  N: common chickweed, herbicidal effect: 3 (mortality of at least 40% and less than 70%)
Posumbu knotweed [23]
  M: posumbu knotweed, herbicidal effect: 2 (mortality of at least 20% and less than 40%)
Common ragweed [24]
  J: common ragweed, herbicidal effect: 3 (mortality of at least 40% and less than 70%)
Redroot pigweed [25]
  K: redroot pigweed, herbicidal effect: 0 (mortality of less than 5% (almost ineffective))
Beadstraw [26]
  O: beadstraw, herbicidal effect: 3 (mortality of at least 40% and less than 70%)
Water foxtail [27]
  G: water foxtail, herbicidal effect: 4 (mortality of at least 70% and less than 90%)
Common lambsquater [28]
  L: common lambsquater, herbicidal effect: 1 (mortality of at least 5% and less than 20%)
Wild oat [29]
  F: wild oat, herbicidal effect: 0 (mortality of less than 5% (almost ineffective))
Barnyardgrass [30]
  A: barnyardgrass, herbicidal effect (evaluation scale 0-5): 5 (mortality of 90% or above (nearly complete death))
Ducksalad [31]
  C: ducksalad, herbicidal effect (evaluation scale 0-5): 5 (mortality of 90% or above (nearly complete death))
Bulrush [32]
  B: bulrush, herbicidal effect (evaluation scale 0-5): 5 (mortality of 90% or above (nearly complete death))
Transplanted rice
  a: transplanted rice, effect on crop (evaluation scale 0-5): 0 (mortality of less than 5% (almost ineffective))

## CC1(C)OCN(Cc2ccccc2N(S(=O)(=O)C(F)(F)F)S(=O)(=O)C(F)(F)F)C(=O)C1F (stereo not drawn) [II-37]
Barnyardgrass [1]
  A: barnyardgrass, herbicidal effect (evaluation scale 0-5): 5 (mortality of 90% or above (nearly complete death))
Giant foxtail [2]
  E: giant foxtail, herbicidal effect (evaluation scale 0-5): 3 (mortality of at least 40% and less than 70%)
Large crabgrass [3]
  D: large crabgrass, herbicidal effect (evaluation scale 0-5): 5 (mortality of 90% or above (nearly complete death))
Velvetleaf [4]
  I: velvetleaf, herbicidal effect (evaluation scale 0-5): 0 (mortality of less than 5% (almost ineffective))
Italian ryegrass [5]
  H: Italian ryegrass, herbicidal effect (evaluation scale 0-5): 0 (mortality of less than 5% (almost ineffective))
Common chickweed [6]
  N: common chickweed, herbicidal effect (evaluation scale 0-5): 2 (mortality of at least 20% and less than 40%)
Posumbu knotweed [7]
  M: posumbu knotweed, herbicidal effect (evaluation scale 0-5): 0 (mortality of less than 5% (almost ineffective))
Common ragweed [8]
  J: common ragweed, herbicidal effect (evaluation scale 0-5): 5 (mortality of 90% or above (nearly complete death))
Redroot pigweed [9]
  K: redroot pigweed, herbicidal effect (evaluation scale 0-5): 3 (mortality of at least 40% and less than 70%)
Beadstraw [10]
  O: beadstraw, herbicidal effect (evaluation scale 0-5): 4 (mortality of at least 70% and less than 90%)
Water foxtail [11]
  G: water foxtail, herbicidal effect (evaluation scale 0-5): 5 (mortality of 90% or above (nearly complete death))
Common lambsquater [12]
  L: common lambsquater, herbicidal effect (evaluation scale 0-5): 0 (mortality of less than 5% (almost ineffective))
Wild oat [13]
  F: wild oat, herbicidal effect (evaluation scale 0-5): 4 (mortality of at least 70% and less than 90%)
Barnyardgrass [14]
  A: barnyardgrass, herbicidal effect (evaluation scale 0-5): 5 (mortality of 90% or above (nearly complete death))
Ducksalad [15]
  C: ducksalad, herbicidal effect (evaluation scale 0-5): 5 (mortality of 90% or above (nearly complete death))
Bulrush [16]
  B: bulrush, herbicidal effect (evaluation scale 0-5): 5 (mortality of 90% or above (nearly complete death))
Barnyardgrass [17]
  A: barnyardgrass, herbicidal effect: 5 (mortality of 90% or above (nearly complete death))
Giant foxtail [18]
  E: giant foxtail, herbicidal effect: 3 (mortality of at least 40% and less than 70%)
Large crabgrass [19]
  D: large crabgrass, herbicidal effect: 4 (mortality of at least 70% and less than 90%)
Velvetleaf [20]
  I: velvetleaf, herbicidal effect: 3 (mortality of at least 40% and less than 70%)
Italian ryegrass [21]
  H: Italian ryegrass, herbicidal effect: 3 (mortality of at least 40% and less than 70%)
Common chickweed [22]
  N: common chickweed, herbicidal effect: 4 (mortality of at least 70% and less than 90%)
Posumbu knotweed [23]
  M: posumbu knotweed, herbicidal effect: 3 (mortality of at least 40% and less than 70%)
Common ragweed [24]
  J: common ragweed, herbicidal effect: 4 (mortality of at least 70% and less than 90%)
Redroot pigweed [25]
  K: redroot pigweed, herbicidal effect: 2 (mortality of at least 20% and less than 40%)
Beadstraw [26]
  O: beadstraw, herbicidal effect: 4 (mortality of at least 70% and less than 90%)
Water foxtail [27]
  G: water foxtail, herbicidal effect: 5 (mortality of 90% or above (nearly complete death))
Common lambsquater [28]
  L: common lambsquater, herbicidal effect: 2 (mortality of at least 20% and less than 40%)
Wild oat [29]
  F: wild oat, herbicidal effect: 1 (mortality of at least 5% and less than 20%)
Barnyardgrass [30]
  A: barnyardgrass, herbicidal effect (evaluation scale 0-5): 5 (mortality of 90% or above (nearly complete death))
Ducksalad [31]
  C: ducksalad, herbicidal effect (evaluation scale 0-5): 5 (mortality of 90% or above (nearly complete death))
Bulrush [32]
  B: bulrush, herbicidal effect (evaluation scale 0-5): 5 (mortality of 90% or above (nearly complete death))
Transplanted rice
  a: transplanted rice, effect on crop (evaluation scale 0-5): 2 (mortality of at least 20% and less than 40%)
